Values of other authors in patent US20140030308A1, “IMPLANTS AND PROCEDURES FOR PROMOTING AUTOLOGOUS STEM CELL GROWTH” (priority 2012, published 2014).

Details: general statement used to time administration before stent placement

half-life: about 8 hours
SMILES: c1cc(CN2CCCNCCNCCCNCC2)ccc1CN1CCCNCCNCCCNCC1 [Prelixafor, 1,1′-[1,4-phenylenebis(methylene)]bis-1,4,8,11-tetraazacyclotetradecane]
